Data on six compounds can be found in US7211597B2, “Substituted pyrazolyl compounds for the treatment of inflammation” (priority 2001, dated 2007).

This experiment has as its target T1, IKK heterodimer (rhIKK1/IKK2) (Homo sapiens, UniProt O14920+O15111).
T1 construct: made in house; host or cells: baculovirus-infected insect cells (SF9)
T1 sequence (O14920 1-756): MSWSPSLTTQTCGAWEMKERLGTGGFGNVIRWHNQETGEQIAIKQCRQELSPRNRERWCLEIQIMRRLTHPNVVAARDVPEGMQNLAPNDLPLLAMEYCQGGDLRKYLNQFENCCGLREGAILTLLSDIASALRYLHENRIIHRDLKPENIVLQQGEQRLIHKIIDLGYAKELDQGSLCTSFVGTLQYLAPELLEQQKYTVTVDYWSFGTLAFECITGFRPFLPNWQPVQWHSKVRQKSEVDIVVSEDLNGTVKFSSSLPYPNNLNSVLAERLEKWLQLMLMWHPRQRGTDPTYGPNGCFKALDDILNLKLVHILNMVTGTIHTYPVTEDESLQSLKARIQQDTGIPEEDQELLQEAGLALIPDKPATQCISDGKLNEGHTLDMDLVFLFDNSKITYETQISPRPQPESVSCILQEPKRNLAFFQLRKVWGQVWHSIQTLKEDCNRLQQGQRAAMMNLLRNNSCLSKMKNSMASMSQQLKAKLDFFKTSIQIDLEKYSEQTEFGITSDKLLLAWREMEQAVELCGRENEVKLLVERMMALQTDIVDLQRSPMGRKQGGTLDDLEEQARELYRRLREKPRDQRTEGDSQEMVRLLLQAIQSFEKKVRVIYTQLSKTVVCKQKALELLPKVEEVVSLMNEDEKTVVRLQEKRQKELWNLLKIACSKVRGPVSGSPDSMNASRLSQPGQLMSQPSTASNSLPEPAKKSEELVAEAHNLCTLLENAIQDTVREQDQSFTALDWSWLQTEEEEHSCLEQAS
T1 sequence (O15111 1-745): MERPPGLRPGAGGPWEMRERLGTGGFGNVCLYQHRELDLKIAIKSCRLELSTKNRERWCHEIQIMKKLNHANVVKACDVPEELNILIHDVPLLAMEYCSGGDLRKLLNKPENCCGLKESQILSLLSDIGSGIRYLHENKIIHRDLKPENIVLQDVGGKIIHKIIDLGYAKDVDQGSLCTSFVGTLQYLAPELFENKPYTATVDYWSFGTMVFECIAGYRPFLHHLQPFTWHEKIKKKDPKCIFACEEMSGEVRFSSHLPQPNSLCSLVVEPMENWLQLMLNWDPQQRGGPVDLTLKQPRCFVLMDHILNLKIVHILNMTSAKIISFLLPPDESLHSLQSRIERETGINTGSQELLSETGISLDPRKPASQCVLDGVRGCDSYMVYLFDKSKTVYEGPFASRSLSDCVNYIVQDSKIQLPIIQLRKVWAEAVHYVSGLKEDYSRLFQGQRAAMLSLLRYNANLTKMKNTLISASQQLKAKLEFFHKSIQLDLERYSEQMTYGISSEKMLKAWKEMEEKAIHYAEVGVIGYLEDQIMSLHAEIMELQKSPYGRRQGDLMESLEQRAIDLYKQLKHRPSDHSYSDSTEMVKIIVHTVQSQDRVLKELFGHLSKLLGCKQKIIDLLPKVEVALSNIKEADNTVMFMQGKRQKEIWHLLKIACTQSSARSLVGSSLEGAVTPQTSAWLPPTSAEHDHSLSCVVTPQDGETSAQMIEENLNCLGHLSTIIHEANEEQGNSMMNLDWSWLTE
In words: IKK heterodimer resin enzyme assay. It counts as biochemical. As to conditions: Table 1; read-out: HetD (IKK heterodimer assay values expressed as IC50). An excerpt:
cDNAs of human IKK1 and IKK2 were amplified by reverse transcriptase-polymerase chain reaction from human placental RNA (Clonetech). hIKK1 was subcloned into pFastBac HTa (Life Technologies) and expressed as N-terminal His6-tagged fusion protein. The hIKK2 cDNA was amplified using a reverse oligonucleotide primer which incorporated the peptide sequence for a FLAG-epitope tag at the C-terminus of the IKK2 coding region (DYKDDDDKD). The hIKK2:FLAG cDNA was subcloned into the baculovirus vector pFastBac. The rhIKK2 ([…]) mutant was constructed in the same vector used for wild type rhIKK2 using a QuikChange™ mutagenesis kit (Stratagene). Viral stocks of each construct were used to infect insect cells grown in 40L suspension culture. […] Cell lysates were stored at −80° C. until purification of the recombinant proteins was undertaken as described below.
Isolation of rhIKK1/IKK2 Heterodimer
The heterodimer enzyme was produced by coinfection in a baculovirus system (FLAG IKK2/IKK1 His; MOI=0.1 and I=72 hrs). Infected cells were centrifuged and the cell pellet (10.0 g) was suspended in 50 ml of buffer A. The protein suspension was microfluidized and centrifuged at 100,000×g for 45 min. Imidazole was added to the supernatant to a final concentration of 10 mM. The protein was allowed to bind 25 ml of Ni-NTA resin by mixing for 2 hrs. The protein-resin slurry was poured into a 25 ml column and washed with 250 ml of buffer A containing 10 mM imidazole followed by 125 ml of buffer A containing 50 mM imidazole. Buffer A, containing 300 mM imidazole, was then used to elute the protein. A 75 ml pool was collected and NP-40 was added to a final concentration of 0.1%. The protein solution was then dialyzed against buffer B. The dialyzed heterodimer enzyme was then allowed to bind to 25 ml of anti-FLAG M2 agarose affinity gel overnight with constant mixing. The protein-resin slurry was then centrifuged for 5 min at 2,000 rpm. The supernatant was collected and the resin re-suspended in 100 ml of buffer C containing 0.1% NP-40. The resin was washed with 375 ml of buffer C containing 0.1% NP-40. The protein-resin was poured into a 25 ml column and the enzyme eluted using buffer B containing FLAG peptide. Enzyme fractions (100 ml) were collected and concentrated to 20 ml using an Amicon membrane with molecular weight cut-off of 30 kDa. Bovine serum albumin was added to the concentrated enzyme to final concentration of 0.1%. The enzyme was then aliquoted and stored at −80° C.
IKK Heterodimer Resin Enzyme Assay
IKK heterodimer kinase activity was measured using a biotinylated IκBα peptide (Gly-Leu-Lys-Lys-Glu-Arg-Leu-Leu-Asp-Asp-Arg-His-Asp-Ser32-Gly-Leu-Asp-Ser36-Met-Lys-Asp-Glu-Glu) (American Peptide Co.). 20 ul of the standard reaction mixture contained 5 μM biotinylated IκBα peptide, 0.1 μCi/reaction [γ-^33P] ATP (Amersham) (about 1×10^5 cpm), 1 μM ATP (Sigma), 1 mM DTT (Sigma), 2 mM MgCl2 (Sigma), 2 mM MnCl2 (Sigma), 10 mM NaF (Sigma), 25 mM Hepes (Sigma) buffer, pH 7.6 and 20 μl enzyme solution and 10 μl inhibitor in a final volume of 50 μl. After incubation at 25° C. for 30 min, 150 μl resin (Dowex anion-exchange resin AG1X8 200-400 mesh) in 900 mM formate, pH 3.0 was added to each well to stop the reaction. Resin was allowed to settle for one hour and 50 ul of supernatant was removed to a Micolite-2 flat bottom plate (Dynex). 150 μl of scintillation fluid (Microscint 40) (Packard) was added to each well. Incorporation of [γ-^33P] ATP was measured using a Top-Count NXT (Packard).

Each structure is given as a SMILES string.

Usually IC50 stands for the point on the concentration scale where inhibition reaches its midpoint. Consider `CCOC(=O)c1nn(-c2ccc(S(N)(=O)=O)cc2)c2c1CNc1ccccc1-2` [Example 12, ethyl 1-[4-(aminosulfonyl)phenyl]-4,5-dihydro-1H-pyrazolo[4,3-c]quinoline-3-carboxylate], for which the IC50 was over 100 µM. With `CCOC(=O)c1nn(-c2ccc(OOSN)cc2)c2c1SCc1ccccc1-2` [Example 9, ethyl 1-{4-[(aminothio)peroxy]phenyl}-1,5-dihydroisothiochromeno[4,3-c]pyrazole-3-carboxylate], the IC50 was over 100 µM. On to `NSOOc1ccc(-n2nc(C(N)=O)c3c2-c2ccc4c(c2CS3)OCO4)cc1` [Example 11, 8-{4-[(aminothio)peroxy]phenyl}-4,8-dihydro[1,3]dioxolo[7,8]isothiochromeno[4,3-c]pyrazole-6-carboxamide], for which the IC50 was over 100 µM. Then `NSOOc1ccc(-n2nc(C(N)=O)c3c2-c2ccccc2CS3)cc1` [Example 10, 1-{4-[(aminothio)peroxy]phenyl}-1,5-dihydroisothiochromeno[4,3-c]pyrazole-3-carboxamide], with over 100 µM.

Turning to `CCOC(=O)c1nn(-c2ccc(S(N)(=O)=O)cc2)c2c1CN(S(=O)(=O)c1ccc(C)cc1)c1ccccc1-2` [Example 14, ethyl 1-[4-(aminosulfonyl)phenyl]-5-[(4-methylphenyl)sulfonyl]-4,5-dihydro-1H-pyrazolo[4,3-c]quinoline-3-carboxylate], the IC50 is over 100 µM. Then `Cc1ccc(S(=O)(=O)N2Cc3c(C(N)=O)nn(-c4ccc(S(N)(=O)=O)cc4)c3-c3ccccc32)cc1` [Example 15, 1-[4-(aminosulfonyl)phenyl]-5-[(4-methylphenyl)sulfonyl]-4,5-dihydro-1H-pyrazolo[4,3-c]quinoline-3-carboxamide], with over 100 µM.
